Values quoted from earlier work, collected in patent publication US20100048598A1, “TOPICAL COMPOSITIONS COMPRISING 5-ALPHA REDUCTASE INHIBITORS” (priority 2008, published 2010).

Assays:
[1] = orally administered
[2] = molecular target: T1, type II 5α-reductase (Homo sapiens, UniProt P31213); details: relative to finasteride
T1 sequence (P31213 1-254): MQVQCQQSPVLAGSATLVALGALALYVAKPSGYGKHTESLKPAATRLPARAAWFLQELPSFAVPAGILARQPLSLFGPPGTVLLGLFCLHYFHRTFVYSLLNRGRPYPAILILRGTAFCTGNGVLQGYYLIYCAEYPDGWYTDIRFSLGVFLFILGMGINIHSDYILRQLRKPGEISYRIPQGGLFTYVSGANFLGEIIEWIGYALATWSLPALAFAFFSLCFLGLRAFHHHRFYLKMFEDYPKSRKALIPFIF

[3] = molecular target: T2, type I 5α-reductase (Homo sapiens, UniProt P18405); details: relative to finasteride
T2 sequence (P18405 1-259): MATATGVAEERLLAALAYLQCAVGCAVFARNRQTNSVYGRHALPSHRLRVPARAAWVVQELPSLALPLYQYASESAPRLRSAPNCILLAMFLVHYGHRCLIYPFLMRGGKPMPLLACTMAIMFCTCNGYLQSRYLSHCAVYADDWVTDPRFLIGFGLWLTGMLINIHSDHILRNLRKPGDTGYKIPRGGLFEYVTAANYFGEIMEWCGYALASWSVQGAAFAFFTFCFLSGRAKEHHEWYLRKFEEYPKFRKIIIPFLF

[4] = system: DHT; details: daily oral 1 mg dose
[5] = system: androgenic alopecia; details: 1 mg/day, treated men

SMILES	Absolute bioavailability [1]	Absolute bioavailability, range ([1]; range in brackets)	potency at inhibiting type II 5α-reductase as compared with finasteride [2]	potency at inhibiting the type I isoform as compared with finasteride [3]	solubility in ethanol (ethanol)	solubility in methanol (methanol)	solubility in polyethylene glycol 400 (polyethylene glycol 400)	solubility in water (water)	scalp DHT reduction [4]	serum DHT reduction [4]	progression of hair loss and hair growth compared with control group [5]
C[C@]12C=CC(=O)N[C@@H]1CC[C@@H]1[C@@H]2CC[C@]2(C)[C@@H](C(=O)Nc3cc(C(F)(F)F)ccc3C(F)(F)F)CC[C@@H]12 [Dutasteride, (5α,17β)-N-{2,5-bis(trifluoromethyl)phenyl}-3-oxo-4-azaandrost-1-ene-17-carboxamide]	about 60%	40%-94%	approximately 3 times	more than 100 times	soluble	soluble	soluble	insoluble	–	–	–
CC(C)(C)NC(=O)[C@H]1CC[C@H]2[C@@H]3CC[C@H]4NC(=O)C=C[C@]4(C)[C@H]3CC[C@]12C [Finasteride]	–	–	–	–	–	–	–	–	64%	68%	slowed the progression of hair loss and increased hair growth
